# In article PMC5400099, “5-Hydroxyethyl-3-tetradecanoyltetramic acid represents a novel treatment for intravascular catheter infections due to Staphylococcus aureus” (Journal of Antimicrobial Chemotherapy, 2016):
# Values joined by “and” are separate entries in the source; they are usually repeats but may differ in a detail not shown here. Equal entries are not always repeated. Where two headings read alike, the source gives them in different places.
# How the values were obtained:
# [1] = tested on: S. aureus strain USA300; test: MIC by broth microdilution (CLSI), strain USA300; assay type: cell-based; conditions: Staphylococcus aureus; USA300 (MRSA), Mueller–Hinton broth
# Procedure: (§1) Community-acquired MRSA (CA-MRSA) strain USA300, its isogenic agr mutant,[17] the hospital-acquired MRSA (HA-MRSA) strain BH1CC,[18] the HA-MSSA strain BH48[19] and the MSSA strain SH1000[20] were cultured in Mueller–Hinton broth for susceptibility testing or in RPMI-1640 (Gibco) for biofilm formation. For the rat jugular vein catheter infection model, the S. aureus strain USA300 (LAC) lux[21] was used.
# (§2) 5HE-C14-TMA and C14-TOA were synthesized as described previously[9] and C14-TTA as described in the Supplementary data available at JAC Online. Stock solutions of the compounds in DMSO at 10–50 mM were further diluted into tissue culture media or sodium chloride for the in vivo experiments. A DMSO solvent control was used in all in vitro experiments. The following antibiotics were used: vancomycin (Vancocin; Flynn Pharma Ltd., Republic of Ireland), daptomycin (Cubicin; Novartis, UK), gentamicin (Hospira, UK) and tigecycline (Tygacil; Pfizer Inc.). MICs were determined by broth microdilution in Mueller–Hinton broth, as recommended by the CLSI.
# [2] = tested on: S. aureus strain BH1CC; test: MIC by broth microdilution (CLSI), strain BH1CC; assay type: cell-based; conditions: Staphylococcus aureus; BH1CC (MRSA), Mueller–Hinton broth
# Procedure: as §1, §2
# [3] = tested on: S. aureus strain SH1000; test: MIC by broth microdilution (CLSI), strain SH1000; assay type: cell-based; conditions: Staphylococcus aureus; SH1000 (MSSA), Mueller–Hinton broth
# Procedure: as §1, §2
# [4] = tested on: S. aureus strain BH48; test: MIC by broth microdilution (CLSI), strain BH48; assay type: cell-based; conditions: Staphylococcus aureus; BH48 (MSSA), Mueller–Hinton broth
# Procedure: as §1, §2
# [5] = tested on: MRSA (USA300 JE2 and BH1CC) and MSSA (SH1000 and BH48) strains; test: MIC by broth microdilution, MRSA and MSSA strains; assay type: cell-based, Staphylococcus aureus; conditions: MRSA and MSSA strains investigated
# Procedure: as §1, §2
# [6] = tested on: S. aureus USA300 LAC; test: Bactericidal activity (time-kill, viable counts); assay type: cell-based, Staphylococcus aureus; conditions: 8 × MIC, planktonic USA300
# Procedure: S. aureus USA300 LAC was grown overnight in LB medium, diluted 250-fold and grown to an OD600 0.5. Cells were diluted to 1 × 10^6 per mL in challenge medium (LB plus 5HE-C14-TMA, C14-TOA or C14-TTA at 8 × MIC). Samples were removed and viable counts determined at 30 min intervals for the first hour followed by hourly sampling. The CLSI defines a compound as bactericidal if it reduces the starting inoculum colony count by at least 99.9% (3-logs).
# [7] = tested on: S. aureus strain USA300 LAC; test: Membrane permeabilization: ATP release; assay type: cell-based, Staphylococcus aureus; conditions: 0-100 μM, 1 h
# Procedure: (§3) Membrane permeabilization was evaluated by quantifying (i) ATP release,[22] and (ii) the uptake of propidium iodide.[22]S. aureus strain USA300 LAC was grown overnight in CYGP medium,[9] washed with sodium phosphate buffer (100 mM, pH 7), re-suspended to OD600 0.1 and incubated at 37 °C with a range of concentrations of each compound for 1 h. Nisin (0.6 μM) was used as a positive control. Cell-free supernatants were assayed for ATP using the Cell Titre-Glo kit (Promega). Staphylococcal cells were re-suspended in 100 mM sodium phosphate buffer (pH 7) containing propidium iodide (10 mg/L), incubated in the dark at room temperature for 10 min. After washing, propidium iodide fluorescence (excitation: 575 nm; emission 630 nm) was determined.
# [8] = tested on: S. aureus strain USA300 LAC; test: Membrane permeabilization: propidium iodide uptake; assay type: cell-based, Staphylococcus aureus; conditions: 0-100 μM, 1 h
# Procedure: as §3
# [9] = tested on: S. aureus biofilms; test: Biofilm susceptibility, resazurin-conversion assay on plasma-coated wells; assay type: cell-based, Staphylococcus aureus; design: Reduction of MRSA biofilm viability: dose or concentration left out as unconfirmed; conditions: for Reduction of biofilm viability: 512 and 1024 mg/L, 24 h treatment; for Comparative anti-biofilm activity: MRSA and MSSA biofilms, compared with the other agents evaluated
# Procedure: Biofilms were formed as previously described to mimic in vivo conditions that promote formation of coagulase-mediated biofilms.[16] Briefly, microtitre plates or glass-bottom culture dishes (MaTek Co., USA) were coated with either 20% (v/v) or 100% (v/v) human plasma, respectively, and inoculated with S. aureus at an OD600 ∼0.2. After 1 h, non-adherent bacteria were aspirated, replaced with fresh RPMI-1640 and biofilms allowed to form over 24 h at 37 °C. Pre-formed biofilms were treated for 24 h with either 5HE-C14-TMA, C14-TOA or C14-TTA or a positive control [ethanol at 40% (v/v)]. Biofilm viability was measured by (i) resazurin-conversion assay (in microtitre wells), or (ii) live/dead imaging (glass-bottom dishes). Conversion of the non-fluorescent redox dye, resazurin into the fluorescent resorufin was performed as described previously.[16] A 44 μM resazurin (Sigma-Aldrich, UK) solution in RPMI-1640 was added to an equal biofilm volume and incubated for 1 h at 37 °C. Fluorescence (excitation 544 nm, emission 590 nm) was quantified using a Perkin Elmer 2030 Multilabel Reader Victor^TM X3. Biofilms were stained with SYTO9 Green (at 13.36 μM) and propidium iodide (at 80 μM) (Molecular Probes®) for 1 h prior to washing. Four representative images at ×40 and ×100 were obtained per experimental group, per experiment using a Zeiss LSM 510 META confocal microscope. Each experiment was repeated at least three times. Fluorescence intensity was quantified using Image J1 software (http://imagej.net/Welcome).
# [10] = MTT cell viability assay, HaCaT; assay type: cell-based, Human; conditions: human, HaCaT keratinocyte cells; HaCaT, MTT, 24 h
# Procedure: (§4) Human keratinocyte (HaCaT) cells were cultured in DMEM supplemented with 10% (v/v) FBS. Primary human umbilical vein endothelial cells (HUVECs) were cultured in EGM™-2 Bulletkit (Lonza) medium. HaCaT and HUVECs were harvested using TrypLE^TM Express (Gibco). Cells were seeded in microtitre plates at 3 × 10^5 cells/mL and incubated for 24 h at 37 °C with an antimicrobial compound ([…]) or Triton X100 at 1% (v/v). After removing the medium, cells were incubated with 500 mg/L MTT (Sigma-Aldrich) for 4 h. The crystals formed were solubilized with DMSO. Absorbance was recorded at 560 nm and the CC50 was determined.
# [11] = tested on: Human keratinocyte (HaCaT) cells; test: MTT cell viability assay, HaCaT; assay type: cell-based; conditions: HaCaT cells
# Procedure: as §4
# [12] = Haemolysis assay; assay type: cell-based; conditions: red blood cells; human RBC; read-out: CC50 (haemolytic activity)
# Procedure: Human blood containing EDTA (1.6 g/L) was centrifuged at 1000 g for 5 min. Red blood cells (RBC) were washed twice with PBS, diluted 2-fold and incubated with compounds or Triton X100 (positive control) at 0.5% (v/v). A570 was determined to quantify haemolysis. IC50s were derived from the corresponding dose–response curves.
# [13] = Iron chelation; assay type: physicochemical; conditions: data not shown
# [14] = tested on: S. aureus; conditions: cited from earlier work
# [15] = tested on: S. aureus; design: method as in PMID 24592914; conditions: cited from earlier work; for Effect on frequency and severity of arthritis: murine S. aureus arthritis model
# [16] = tested on: S. aureus biofilms; design: method as in PMID 19807189; conditions: cited from earlier work
# [17] = tested on: S. aureus; design: method as in PMID 15623555, PMID 19807189; conditions: sub-growth inhibitory concentrations; cited from earlier work
# [18] = MTT cell viability assay, HUVEC; assay type: cell-based, human; conditions: human, primary HUVECs (umbilical vein endothelial cells); HUVEC, MTT, 24 h
# Procedure: as §4
# [19] = tested on: Primary human umbilical vein endothelial cells (HUVECs); test: MTT cell viability assay, HUVEC; assay type: cell-based; conditions: HUVECs
# Procedure: as §4
# [20] = tested on: agr quorum sensing system; design: method as in PMID 24592914; conditions: S. aureus; cited from earlier work
# [21] = tested on: staphylococcal membrane; design: method as in PMID 24592914; conditions: binding to the staphylococcal membrane, single site model; cited from earlier work
compound,measurement,setting,value
"CCCCCCCCCCCCCC(=O)C1=C(O)SCC1=O [C14-TTA, 3-tetradecanoylthiotetronic acid]",MIC,[1],12.5 µM and 4 µg/mL
same,MIC,[2],12.5 µM and 4 µg/mL
same,MIC,[3],12.5 µM and 4 µg/mL
same,MIC,[4],12.5 µM and 4 µg/mL
same,MIC,[5],4 µg/mL
same,MIC,[5]; Staphylococcus aureus,2 to 4 µg/mL
same,Bactericidal activity (CLSI: at least 3-log reduction),[6],bactericidal
same,Extracellular ATP levels (ATP release relative to nisin 0.6 μM),[7],least active
same,Propidium iodide fluorescence (uptake relative to nisin 0.6 μM),[8],least active
same,Reduction of biofilm viability,[9]; resazurin,2.5–3 fold
same,Comparative anti-biofilm activity,[9],far less effective
same,CC50 at 24 h,[10],26 µM and 8.3 µg/mL
same,"Selectivity index (SI, CC50/MIC)",[11],2
same,CC50,[12],470 µM and 153 µg/mL
same,Iron chelation,[13],do not chelate iron
"CCCCCCCCCC(=O)N[C@@H](Cc1c[nH]c2ccccc12)C(=O)N[C@H](CC(N)=O)C(=O)N[C@@H](CC(=O)O)C(=O)N[C@@H]1C(=O)NCC(=O)N[C@@H](CCCN)C(=O)N[C@@H](CC(=O)O)C(=O)N[C@H](C)C(=O)N[C@@H](CC(=O)O)C(=O)NCC(=O)N[C@H](CO)C(=O)N[C@@H]([C@H](C)CC(=O)O)C(=O)N[C@@H](CC(=O)c2ccccc2N)C(=O)O[C@@H]1C [daptomycin, reference compound]",Comparative anti-biofilm activity,[9],most active antimicrobial evaluated
"CN[C@H](CC(C)C)C(=O)N[C@H]1C(=O)N[C@@H](CC(N)=O)C(=O)N[C@H]2C(=O)N[C@H]3C(=O)N[C@H](C(=O)N[C@H](C(=O)O)c4cc(O)cc(O)c4-c4cc3ccc4O)[C@H](O)c3ccc(c(Cl)c3)Oc3cc2cc(c3O[C@@H]2O[C@H](CO)[C@@H](O)[C@H](O)[C@H]2O[C@H]2C[C@](C)(N)[C@H](O)[C@H](C)O2)Oc2ccc(cc2Cl)[C@H]1O [vancomycin, reference compound]",Reduction of MRSA biofilm viability,"[9]; MRSA biofilm, resazurin",3.5–4 fold
"CCCCCCCCCC(=O)C1C(=O)CNC1=O (centres unmarked) [C10-TMA, reference compound]",Antibacterial activity after removal of the 5-hydroxyethyl moiety of 5HE-C10-TMA,[14],did not reduce antibacterial activity
"CCCCCCCCCC(=O)CC(=O)N[C@H]1CCOC1=O [3-oxo-C12-HSL, N-(3-oxododecanoyl)-L-homoserine lactone, reference compound]",MIC,[14]; S. aureus growth,100 μM and 30 mg/L
"CCCCCCCCCC(=O)C1C(=O)NC(CCO)C1=O (centres unmarked) [5HE-C10-TMA, 5-hydroxyethyl-3-decanoyltetramic acid]",Toxicity in murine arthritis model,[15],neither C14-TOA nor 5HE-C10-TMA were toxic
same,Effect on frequency and severity of arthritis,[15],inactive
same,Activity against S. aureus biofilms,[16]; at 200 mg/L,inactive
same,Efficacy against S. aureus biofilms,[16],no efficacy
same,Selection for resistance on serial passage,[17],did not select for resistance
"CCCCCCCCCCCCCC(=O)C1=C(O)OCC1=O [C14-TOA, 3-tetradecanoyltetronic acid]",MIC,[1],12.5 µM and 4 µg/mL
same,MIC,[2],12.5 µM and 4 µg/mL
same,MIC,[3],12.5 µM and 4 µg/mL
same,MIC,[4],12.5 µM and 4 µg/mL
same,MIC,[5],4 µg/mL
same,MIC,[5]; Staphylococcus aureus,2 to 4 µg/mL
same,Reduction of biofilm viability,[9]; resazurin,2.5–3 fold
same,Comparative anti-biofilm activity,[9],far less effective
same,CC50 at 24 h,[10],257 µM and 80 µg/mL
same,"Selectivity index (SI, CC50/MIC)",[11],20
same,CC50 at 24 h,[18],28 µM and 9 µg/mL
same,"Selectivity index (SI, CC50/MIC)",[19],2.3
same,CC50,[12],> 2.05 mM and > 667 µg/mL
same,Iron chelation,[13],do not chelate iron
same,MIC,[14]; towards S. aureus,25 µM
same,IC50,[20],3000 nM
same,Kd,[21],2000 nM
same,Toxicity in murine arthritis model,[15],neither C14-TOA nor 5HE-C10-TMA were toxic
same,Effect on frequency and severity of arthritis,[15],significantly reduced the frequency and severity of arthritis and joint destruction
same,Numbers of viable staphylococci in the kidneys,[15]; murine S. aureus infection model,"did not, however, reduce"
